Data on one compound can be found in article PMC4841536, “Characterization of the Anti-HCV Activities of the New Cyclophilin Inhibitor STG-175” (PLoS ONE, 2016).

SMILES strings stand for the structures.

In the test the test system is subgenomic Con1 (GT1b) replicon in Huh-7 cells. The note with it: 0.25, 0.5 or 1 μM, 7 passages with drug then 3 passages without; HCV RNA by RT-qPCR. As to the method:
Cells were grown until they reached 90% confluence, trypsinized and re-seeded at the same cell concentration in a new 10-cm dish with the same drug concentration. […] Then drugs were removed to allow viral replication rebound to occur. At each passage, sample of cells were collected, RNA extracted according to the manufacturer's instructions and analyzed by RT-PCR for HCV RNA levels.
Fig 3 Replicon clearance, replication rebound and resistance analyses. […] Then drugs were removed to allow viral replication rebound to occur. At each passage, samples of cells were collected, RNA extracted and analyzed by RT-PCR for HCV RNA levels. B. Emergence of resistance: Con1 replicon Huh-7 cells were passaged 22 times in the absence or presence of STG-175 or selected DAAs. At each passage, sample of cells were collected, RNA extracted and analyzed by RT-PCR for HCV RNA levels. C. […] Data are expressed as number of HCV RNA copies per cell. […] Data are expressed as mean of relative light units and calculated EC50s are presented. […] E. Degree of resistance of D320E and Y321N Con1 variants: Left panel. Wild-type (WT), D320E and D320/Y321N NS5A Con1 RNA were electroporated into Huh7.5.1 cells and replication monitored over 8 days by quantifying the levels of intracellular HCV RNA. Right panel. Same as just above except that increasing concentrations of STG-175 were added at the time of the electroporation. […]
In general terms: Quantitative PCR measures a nucleic acid by following its amplification.

In the case of `CC=CCC(C)C(O)C1C(=O)NC(CC)C(=O)N(C)C(CSCCCCO)C(=O)N(C)C(CC(C)(C)O)C(=O)NC(C(C)C)C(=O)N(C)C(CC(C)C)C(=O)NC(C)C(=O)NC(C)C(=O)N(C)C(CC(C)C)C(=O)N(C)C(CC(C)C)C(=O)N(C)C(C(C)C)C(=O)N1C` (stereo not shown) [STG-175], the “viral replication rebound after drug removal” value is reported as “no replication rebound was observed”.
